Source: patent publication US20070293443A1, “Composition for Accelerating Calcium Absorption” (Good Shusei Co. Ltd, priority 2004, published 2007)
One block for each compound: values may come before it.

Assays:
[1] = Neutralization curve on dropwise addition of 0.05 N sodium hydroxide, buffering capacity (Example 9); format: physicochemical; details: 50 mL of 0.4% aqueous solution, 0.05 N sodium hydroxide added
Method: A sodium hydroxide solution at a concentration of 0.05 N was added to 50 mL of a 0.4% aqueous solution of the preparation of Example 9, and the changes in pH were obtained as shown in FIG. 3. […] In addition, 0.2% aqueous solutions of the preparation of Example 9, Comparative Example 1 and Comparative Example 2 were tasted. The 0.2% aqueous solution of the preparation of […] (pH 4.95), having the lowest pH among three, had the closest taste to water, no flavor, and thus it was indistinguishable from water. The preparations of Comparative Example 1 (pH 5.60) and Comparative Example 2 (pH 5.02) had clearly bitter tastes, even in small amount.
In addition, a sodium hydroxide solution at a concentration of 0.05 N was added to 50 mL of a 0.4% aqueous solution of L-arabono-γ-lactone and 50 mL of a 0.4% aqueous solution of D-glucono-δ-lactone, respectively, and the changes in pH were obtained as shown in FIG. 2.

[2] = test system: dietary calcium absorption; assay: Dietary calcium absorption accelerating effect, blood calcium level after oral calcium carbonate with test substance (Example 1); format: in vivo; details: male ICR mice, oral 5 mmol/kg calcium carbonate alone or with test substance (1.25-10.0 mmol/kg), up to 4 hours after administration
Description: For the experiment, 11-weeks old male ICR mice were used after overnight fasting. During the test period, the mice were given deionized water only. […] The doses of L-arabonic acid administered in combination were 1.25 mmol/kg (Group II), 2.5 mmol/kg (Group III), 5.0 mmol/kg (Group IV), and 10.0 mmol/kg (Group V), and the doses of D-gluconic acid were 2.5 mmol/kg (Group VI), 5.0 mmol/kg (Group VII), and 10.0 mmol/kg (Group VIII). […] The blood calcium level was quantified by a chelate colorimetric method (ortho-cresolphthalein complexone (OCPC) method). The obtained data were analyzed by a paired t-test, and a risk ratio of 5% or less was considered as significant difference.

[3] = Blood calcium level after administration of calcium L-arabonate (Example 5); format: in vivo; details: male ICR mice, oral calcium L-arabonate 1.25, 2.5, 5.0 mmol/kg or calcium carbonate 5 mmol/kg, up to 4 hours
Method: For the experiment, 11-weeks old male ICR mice were used after overnight fasting. During the test period, the mice were given deionized water only. The mice were divided into four groups (Groups I to IV, 5 animals in each group), and the test substance was orally administered as a solution in deionized water. […] The blood calcium level was quantified by a chelating calorimetric method (ortho-cresolphthalein complexone (OCPC) method). The obtained data were analyzed by a paired t-test, and a risk ratio of 5% or less was considered as significant difference.

[4] = Kinetics of calcium L-arabonate in the digestive tract of rat (Example 6); format: in vivo
Method: For the experiment, 9 to 12-weeks old male Wistar rats were used after overnight fasting. After orally administering 2.5 mmol/kg of calcium L-arabonate, the animals were entered into a metabolic cage, and were sacrificed after 2 hours, after 6 hours, and after 24 hours, to remove the digestive tracts. The contents in each site of the digestive tract were recovered, respectively, and the amount of unaltered L-arabonic acid was quantified by the HPLC method. During the test period, the animals were given deionized water only.

mice = assay: Single oral administration safety test, LD50; format: in vivo
Description: As a result of a single oral test using mice, it was confirmed that the LD50 value of L-arabonic acid was about 10 g/kg, and thus L-arabonic acid was a material having high safety.
While it was discovered in Example 5 that the calcium moiety of calcium L-arabonate used in the invention was extremely readily-absorbable, it was shown in Example 6 that the L-arabonic acid moiety was extremely poorly absorbed in the digestive tract.

[5] = test system: experimental osteoporosis induced by calcium-deficient diet; assay: Experimental osteoporosis induced by calcium-deficient diet (Example 7); format: in vivo, mice; details: for absorption rate of calcium in the digestive tract, fourth week / absorption rate of calcium in the digestive tract, second week: calcium-deficient diet mice; for Femur Ash content / Femur Ca content / Femur P content / Femur Weight / Tibia Ash content / Tibia Ca content / Tibia P content / Tibia Weight: 4 weeks
Method: (§1) Six-week old female ICR mice were divided into five groups (Groups I to V, 10 animals in each group), and fed calcium-deficient feed (calcium carbonate-free AIN 93M, Oriental Yeast Co., Ltd.) for 4 weeks to induce osteoporosis condition. Calcium L-arabonate was dissolved in water and orally administered daily in a dose of 1.25 mmol/kg (Group II) or 2.5 mmol/kg (Group III). The control group for pathological condition (Group I) was administered with water in the same manner. As a comparative group, a group administered with calcium D-gluconate (dose 2.5 mmol/kg (Group IV)) was provided. A normal control group (Group V) was separately provided and was given the normal feed (AIN 93M, Oriental Yeast Co., Ltd.). After administering the test substance on the second week and fourth week of initiation of the test, the animals were transferred to a metabolic cage, and feces were collected for 24 hours. The amount of calcium and phosphorus excreted in the feces were measured, and the absorption rates of ingested calcium and phosphorous in the digestive tract were determined. After completion of the test period, the animals of the respective groups were sacrificed to remove both femurs and tibiae. The femurs and tibiae were removed muscles etc., then immersed in 70% ethanol overnight, and dried at 60° C. for 24 hours to be used as samples for analysis. The measurement items were dry weight, ash content, calcium content, and phosphorus content. The ash content was measured by an ashing method at 550° C. for 18 hours, the calcium content was measured by an OCPC method (Calcium C-Test Wako, Wako Pure Chemical Industries, Ltd.), and the phosphorus content was measured by a p-methylaminophenol reduction method (Phospho C-Test Wako, Wako Pure Chemical Industries, Ltd.). The obtained data were analyzed by ANOVA and the Dunnett's method, and a risk ratio of 5% or less was considered as significant difference.

[6] = test system: experimental osteoporosis induced by combination of ovary excision and calcium-deficient diet; assay: Experimental osteoporosis due to combination of ovary excision and calcium-deficient diet (Example 8); format: in vivo, mice; details: for absorption rate of calcium in the digestive tract, fourth week / absorption rate of calcium in the digestive tract, second week: ovary-excised mice on calcium-deficient diet; for Femur Ash content / Femur Ca content / Femur P content / Femur Weight / Tibia Ash content / Tibia Ca content / Tibia P content / Tibia Weight: 4 weeks
Method: as §1
Six-weeks old female ICR mice excised their ovaries were divided into 5 groups (Groups I to V, 10 animals in each group), and fed calcium-deficient feed (calcium carbonate-free AIN 93M, Oriental Yeast Co., Ltd.) for 4 weeks to induce osteoporosis condition. Calcium L-arabonate was dissolved in water, and orally administered daily in a dose of 1.25 mmol/kg (Group II) or 2.5 mmol/kg (Group III). The control group for pathological condition (Group I) was administered with water in the same manner. As a comparative group, a group administered with calcium D-gluconate (dose 2.5 mmol/kg (Group IV)) was provided. Also, a group excised ovaries but given with normal feed (AIN 93M, Oriental Yeast Co., Ltd.) (Group V) was separately provided. The measurement of the absorption rate of calcium in the digestive tract, and the analysis of femur and tibia were performed in the same manner as in Example 7.

[7] = 1.25 and 2.5 mmol/kg, versus pathological control and calcium D-gluconate group

- buffering capacity [1]: milder than that of D-glucono-δ-lactone
SMILES: O=C1O[C@@H](CO)[C@H](O)[C@H]1O [L-arabono-γ-lactone]
- change in blood calcium level [2]: same effects as those of L-arabonic acid

SMILES: O=C([O-])[C@@H](O)[C@H](O)[C@H](O)CO.O=C([O-])[C@@H](O)[C@H](O)[C@H](O)CO.[Ca+2] [calcium L-arabonate]
- change in blood calcium level [3]: dose-dependent increases in the blood calcium level
- share of the total amount of administration remained in the cecum and the colon ([4]; after 24 hours, oral 2.5 mmol/kg calcium L-arabonate): About 23%
- absorption of the arabonic acid moiety in the small intestine ([4]; after oral administration of the calcium salt): hardly absorbed in the small intestine
- Residual ratio of L-arabonic acid after administration, Cecum, After 2 hrs ([4]; oral 2.5 mmol/kg calcium L-arabonate, cecum, 2 hrs): 34.4 ± 5.81%
- Residual ratio of L-arabonic acid after administration, Cecum, After 6 hrs ([4]; oral 2.5 mmol/kg calcium L-arabonate, cecum, 6 hrs): 57.8 ± 2.27%
- Residual ratio of L-arabonic acid after administration, Cecum, After 24 hrs ([4]; oral 2.5 mmol/kg calcium L-arabonate, cecum, 24 hrs): 19.0 ± 15.67%
- Residual ratio of L-arabonic acid after administration, Colon, After 2 hrs ([4]; oral 2.5 mmol/kg calcium L-arabonate, colon, 2 hrs): 1.9 ± 0.76%
- Residual ratio of L-arabonic acid after administration, Colon, After 6 hrs ([4]; oral 2.5 mmol/kg calcium L-arabonate, colon, 6 hrs): 3.9 ± 1.30%
- Residual ratio of L-arabonic acid after administration, Colon, After 24 hrs ([4]; oral 2.5 mmol/kg calcium L-arabonate, colon, 24 hrs): 2.5 ± 0.95%
- Residual ratio of L-arabonic acid after administration, Small intestine, After 2 hrs ([4]; oral 2.5 mmol/kg calcium L-arabonate, small intestine, 2 hrs): 22.6 ± 4.85%
- Residual ratio of L-arabonic acid after administration, Small intestine, After 6 hrs ([4]; oral 2.5 mmol/kg calcium L-arabonate, small intestine, 6 hrs): 2.2 ± 1.08%
- Residual ratio of L-arabonic acid after administration, Small intestine, After 24 hrs ([4]; oral 2.5 mmol/kg calcium L-arabonate, small intestine, 24 hrs): 0.2 ± 0.08%
- Residual ratio of L-arabonic acid after administration, Stomach, After 2 hrs ([4]; oral 2.5 mmol/kg calcium L-arabonate, stomach, 2 hrs): 3.30 ± 1.34%
- Residual ratio of L-arabonic acid after administration, Stomach, After 6 hrs ([4]; oral 2.5 mmol/kg calcium L-arabonate, stomach, 6 hrs): 0.1 ± 0.06%
- Residual ratio of L-arabonic acid after administration, Stomach, After 24 hrs ([4]; oral 2.5 mmol/kg calcium L-arabonate, stomach, 24 hrs): 0%
- LD50 (mice): ≥ 7400 mg/kg
- absorption rates of phosphorus in the digestive tract ([5]; 1.25 and 2.5 mmol/kg, compared with calcium D-gluconate group): tendency for higher absorption rates of phosphorus compared with the comparative group
- amelioration of weight, ash, calcium and phosphorus content of femur and tibia [5, 7]: ameliorated in all of the above indices in dose-dependent manner
- absorption rate of calcium in the digestive tract, fourth week ([5]; dose 1.25 mmol/kg oral daily): 99.3%
- absorption rate of calcium in the digestive tract, second week ([5]; dose 1.25 mmol/kg oral daily): 93.1%
- absorption rate of calcium in the digestive tract, fourth week ([5]; dose 2.5 mmol/kg oral daily): 80.1%
- absorption rate of calcium in the digestive tract, second week ([5]; dose 2.5 mmol/kg oral daily): 87.9%
- Femur Ash content ([5]; dose 1.25 mmol/kg oral daily): 24 ± 0.7 mg
- Femur Ca content ([5]; dose 1.25 mmol/kg oral daily): 8.8 ± 0.22 mg
- Femur P content ([5]; dose 1.25 mmol/kg oral daily): 4.5 ± 0.09 mg
- Femur Weight ([5]; dose 1.25 mmol/kg oral daily): 44 ± 1.0 mg
- Femur Ash content ([5]; dose 2.5 mmol/kg oral daily): 27 ± 0.5 mg
- Femur Ca content ([5]; dose 2.5 mmol/kg oral daily): 9.5 ± 0.13 mg
- Femur P content ([5]; dose 2.5 mmol/kg oral daily): 5.1 ± 0.05 mg
- Femur Weight ([5]; dose 2.5 mmol/kg oral daily): 49 ± 1.1 mg
- Tibia Ash content ([5]; dose 1.25 mmol/kg oral daily): 23 ± 0.8 mg
- Tibia Ca content ([5]; dose 1.25 mmol/kg oral daily): 8.1 ± 0.28 mg
- Tibia P content ([5]; dose 1.25 mmol/kg oral daily): 4.2 ± 0.14 mg
- Tibia Weight ([5]; dose 1.25 mmol/kg oral daily): 43 ± 1.6 mg
- Tibia Ash content ([5]; dose 2.5 mmol/kg oral daily): 24 ± 0.5 mg
- Tibia Ca content ([5]; dose 2.5 mmol/kg oral daily): 9.1 ± 0.22 mg
- Tibia P content ([5]; dose 2.5 mmol/kg oral daily): 4.6 ± 0.05 mg
- Tibia Weight ([5]; dose 2.5 mmol/kg oral daily): 46 ± 1.2 mg
- amelioration of weight, ash, calcium and phosphorus content of femur and tibia [6, 7]: ameliorated in all of the indices in dose-dependent manner
- absorption rate of calcium in the digestive tract, fourth week ([6]; dose 1.25 mmol/kg oral daily): 81.8%
- absorption rate of calcium in the digestive tract, second week ([6]; dose 1.25 mmol/kg oral daily): 85.7%
- absorption rate of calcium in the digestive tract, fourth week ([6]; dose 2.5 mmol/kg oral daily): 57.7%
- absorption rate of calcium in the digestive tract, second week ([6]; dose 2.5 mmol/kg oral daily): 74.4%
- Femur Ash content ([6]; dose 1.25 mmol/kg oral daily): 25 ± 0.4 mg
- Femur Ca content ([6]; dose 1.25 mmol/kg oral daily): 8.8 ± 0.18 mg
- Femur P content ([6]; dose 1.25 mmol/kg oral daily): 4.7 ± 0.07 mg
- Femur Weight ([6]; dose 1.25 mmol/kg oral daily): 45 ± 0.9 mg
- Femur Ash content ([6]; dose 2.5 mmol/kg oral daily): 28 ± 0.8 mg
- Femur Ca content ([6]; dose 2.5 mmol/kg oral daily): 10.2 ± 0.24 mg
- Femur P content ([6]; dose 2.5 mmol/kg oral daily): 5.3 ± 0.11 mg
- Femur Weight ([6]; dose 2.5 mmol/kg oral daily): 50 ± 0.9 mg
- Tibia Ash content ([6]; dose 1.25 mmol/kg oral daily): 22 ± 0.3 mg
- Tibia Ca content ([6]; dose 1.25 mmol/kg oral daily): 8.2 ± 0.15 mg
- Tibia P content ([6]; dose 1.25 mmol/kg oral daily): 4.2 ± 0.05 mg
- Tibia Weight ([6]; dose 1.25 mmol/kg oral daily): 42 ± 0.8 mg
- Tibia Ash content ([6]; dose 2.5 mmol/kg oral daily): 25 ± 0.5 mg
- Tibia Ca content ([6]; dose 2.5 mmol/kg oral daily): 9.3 ± 0.23 mg
- Tibia P content ([6]; dose 2.5 mmol/kg oral daily): 4.7 ± 0.11 mg
- Tibia Weight ([6]; dose 2.5 mmol/kg oral daily): 46 ± 1.0 mg
